Measured values reported in PubChem BioAssay (NCI).
Values joined by “and” are separate entries in the source; they are usually repeats but may differ in a detail not shown here. Equal values may be shown once.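 In this assay, cells in 96-well plates receive the compound at five concentrations for 48 hours. Endpoints are linearly interpolated between the surrounding concentrations. Here, GI50 denotes the concentration required for 50% inhibition of growth. TGI is the concentration that stops growth completely.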

Legend:
Test in all cases: growth of human tumour cells (NCI), 48 h
[1] = tested on: EKVX NSCLC
[2] = tested on: NCI-H23 lung
[3] = tested on: OVCAR-5 ovarian
[4] = tested on: HOP-92 NSCLC
[5] = tested on: SF-268 CNS
[6] = tested on: SF-539 CNS
[7] = tested on: M14 melanoma
[8] = tested on: TK-10 renal
[9] = tested on: SN12C renal
[10] = tested on: DU-145 prostate

SMILES	TGI [1] [µM]	TGI [2] [µM]	TGI [3] [µM]	TGI [4] [µM]	TGI [5] [µM]	TGI [6]	TGI [7]	TGI [8] [µM]	TGI [9] [µM]	GI50 [1] [µM]	GI50 [2]	GI50 [3]	GI50 [5]	GI50 [6] [µM]	GI50 [7]	GI50 [8]	GI50 [9]	GI50 [10]	TGI [10] [µM]	GI50 [4]
COC(=O)[C@@]1(O)CC(C)C=C1C=O (stereo partly specified)	> 100	> 100	> 100	> 100	> 100	> 100 µM	> 100 µM	> 100	> 100											
CC1(C)CCC[C@]2(C)c3cc(O)ccc3CC[C@@H]12	36.7	34.3	27.9		33.4	33.1 µM	> 100 µM	33.7	31.3	21.5	17.3 µM	14 µM	16.4 µM	18.3	28.2 µM	18.2 µM	17.5 µM	16.4 µM	30.6	
CCCCCCCCC(O)C#CC(N)=O (stereo unspecified)	23.6	35.6	43.9	24.3		26.1 µM	25.6 µM	30.8	23.8											
C[C@]1(C(=O)O)N[C@H](C(=O)O)CS1		> 1000	> 1000	> 1000	> 1000		> 1000 µM	> 1000			> 1000 µM	> 1000 µM	> 1000 µM		> 1000 µM	> 1000 µM				> 1000 µM
COc1cc(C=O)c(-c2cc3c(cc2C2(C)OCCS2)OCO3)c(OC)c1OC (stereo unspecified)	> 97	92.9	129	90.3	> 239	17.4 µM	16.1 µM	> 205	49.8											
COc1ccc2c(c1)CCc1[nH]nc(-c3cc(OC)c(OC)c(OC)c3)c1-2		3.53	38.8	28.5	26.8	< 0.01 µM	10.9 µM		22		< 0.01 µM	0.242 µM	< 0.01 µM	< 0.01	< 0.01 µM		< 0.01 µM	< 0.01 µM	> 100	< 0.01 µM
O=C(Nc1ccc2[nH]c(C(=O)N3CC(CCl)c4c3cc([N+](=O)[O-])c3ccccc43)cc2c1)c1cc2ccccc2o1 (stereo unspecified)	> 1100	> 1100	> 1100	> 1100	> 1100	> 1100 µM	> 1100 µM		> 1100	> 1100	> 1100 µM	> 1100 µM	> 1100 µM		> 1100 µM		> 1100 µM	> 1100 µM	> 1100	> 1100 µM
COc1cc([C@H]2c3cc4c(cc3[C@H](NCc3ccc([N+](=O)[O-])cc3)C3COC(=O)[C@H]32)OCO4)cc(OC)c1O (stereo partly specified)	> 23.6	1.91	> 26	> 100	> 25.9	2.95 µM	10.4 µM	7.08	4.68											
c1ccc(Nn2c(CCCCCCCCc3nnc(COc4ccccc4)n3Nc3ccccc3)nnc2COc2ccccc2)cc1		> 300	> 300	267	> 300	> 60.5 µM and 20 µM	> 60.1 µM and 50.2 µM	> 300	> 300		37.2 µM and 76.8 µM	8.56 µM and 10.2 µM	23.5 µM and 70.9 µM	7.23	6.24 µM and 4.23 µM	45.7 µM and 162 µM	35.5 µM and 66.6 µM	35 µM and > 300 µM	> 300	30.7 µM and 41.9 µM
N#Cc1ccc(C2C3=C(CCCC3=O)OC3=C2C(=O)c2ccccc2C3=O)cc1 (stereo unspecified)	3.86	5.03	4.23	3.59	5.04	3.06 µM	3.37 µM		3.16	1.28	1.25 µM	2.09 µM	1.97 µM	1.69	1.71 µM		1.16 µM	1.67 µM	3.07	1.27 µM
O=C(NC12CC3CC(CC(C3)C1)C2)C(=O)c1c[nH]c2ccc([N+](=O)[O-])cc12	> 100	> 100	> 100	> 90.5	43.4	> 100 µM	> 100 µM	> 100	> 100											
CCCCN=C(NC#N)N(Cc1ccccc1)Cc1ccccc1	74.9	77.4	87.5	45.5	> 100	48.2 µM	53.3 µM	> 100	82											
Nc1nc(NC2C=C(CO)C(O)C2O)c([N+](=O)[O-])c(=O)[nH]1 (stereo unspecified)	> 100	> 100	> 100	> 100	> 100	> 100 µM	> 100 µM	> 100	> 100											
O=c1cc(-c2ccccc2)[nH]c2c(Cl)cccc12	> 100	> 100			> 100	41.7 µM	> 100 µM	> 100	> 100											
CCC(=O)C(C)C(=O)C(=O)C(=O)OC (stereo unspecified)	> 100	> 100	> 100	> 100	> 100	> 100 µM	> 100 µM	> 100	> 100											
Cc1cc([N+](=O)[O-])ccc1NS(=O)(=O)c1cc(Cl)ccc1Cl		9.99	> 100	3.81	> 100	20.7 µM	33.4 µM	75.2	> 100		3 µM	5.1 µM	4.49 µM	3.45	3.66 µM	3.54 µM	2.87 µM	5.37 µM	> 100	0.666 µM
CC(C)(O)[C@@H]1CC[C@@]2(C)CCC[C@H](O)[C@H]2C1		> 100	> 100	> 100	> 100	> 100 µM	> 100 µM	> 100	> 100											
COc1ccc(OC)c(NCC#N)c1	> 100	> 100		> 100	> 100	> 100 µM	> 100 µM	> 100	> 100											
